# PMC9102781 (Molecules, 2022)
# Molecular target: T1, Acetylcholinesterase (AChE) (Electrophorus electricus, UniProt O42275)
# T1 construct: purchased Sigma Aldrich type VI-S
# Test: In vitro anti-acetylcholinesterase assay (Ellman's method)
# Assay type: biochemical
# Settings: read-out: AChE Inhibition (IC50)
# Text: In vitro enzyme assay reagents were purchased as previously described. Acetylcholinesterase (AChE) from Electrophorus electricus type VI-S lyophilized powder (137 units/mg) was acquired from Sigma Aldrich (St. Louis, MO, USA). Substrate acetylthiocholine iodide (ATCl) and sodium phosphate monobasic and dibasic anhydrous used for buffer preparation were obtained from Wako Pure Chemical (Osaka, Japan). Coloring reagent 5,5′-dithio-bis-(2-nitrobenzoic acid) (DTNB) was acquired from Nacalai Tesque (Kyoto, Japan). […] All other reagents acquired from commercial sources were of analytical grade.
# The plant fractions and isolated compounds were evaluated for their anti-AChE potential in triplicate based on the Ellman’s method described previously.
# T1 sequence (O42275 24-633): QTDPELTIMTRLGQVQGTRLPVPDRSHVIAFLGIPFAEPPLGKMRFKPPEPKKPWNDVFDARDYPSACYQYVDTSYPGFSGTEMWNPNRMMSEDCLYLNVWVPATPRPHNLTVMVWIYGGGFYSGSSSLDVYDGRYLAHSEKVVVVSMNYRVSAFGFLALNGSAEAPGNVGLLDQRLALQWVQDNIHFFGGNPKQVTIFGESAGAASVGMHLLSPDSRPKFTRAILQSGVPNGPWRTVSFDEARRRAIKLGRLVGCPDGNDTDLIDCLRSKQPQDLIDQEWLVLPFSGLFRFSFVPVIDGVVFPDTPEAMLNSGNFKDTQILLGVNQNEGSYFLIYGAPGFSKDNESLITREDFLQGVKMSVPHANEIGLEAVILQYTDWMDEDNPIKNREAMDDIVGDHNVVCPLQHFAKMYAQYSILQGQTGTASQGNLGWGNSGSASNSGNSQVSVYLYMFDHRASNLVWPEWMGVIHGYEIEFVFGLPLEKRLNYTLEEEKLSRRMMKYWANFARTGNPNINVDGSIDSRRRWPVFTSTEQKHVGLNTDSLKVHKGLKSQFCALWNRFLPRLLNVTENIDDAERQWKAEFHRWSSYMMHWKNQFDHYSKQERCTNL
row,SMILES,IC50
1,"CC(C)=CCC/C(C)=C/Cc1c([C@@H]2CC(=O)c3c(O)cc(O)cc3O2)ccc(O)c1O [Compound 2, nymphaeol B]",33000 nM
2,"CC/C=C\C/C=C\C/C=C\CCCCCCCc1cccc(O)c1C(=O)O [Compound 4, 6-heptadeca-8Z,11Z,14Z-trienyl salicylic acid]",2400 nM
3,"CCCC/C=C\C/C=C\CCCCCCCCc1cccc(O)c1C(=O)O [Compound 5, 6-heptadeca-9Z,12Z-dienyl salicylic acid]",540 nM
4,"CC(C)=CCCC(C)=CCc1c(O)cc2c(c1O)C(=O)CC(c1cc(O)cc(O)c1)O2 (centres unmarked) [Compound 3, schizolaenone C]",6800 nM
5,"CC(C)=CCC/C(C)=C/Cc1c(C2CC(=O)c3c(O)cc(O)c(CC=C(C)C)c3O2)ccc(O)c1O (centres unmarked) [Compound 1, solophenol A]",1000 nM
